# ChEMBL document CHEMBL1201862, “PubChem BioAssay data set” (2004)
# Activity calls are given as the source filed them.
# Experiments:
# [1] = molecular target: T1, Short transient receptor potential channel 4 (Mus musculus, UniProt Q9QUQ5); test: potentiation of DAMGO-evoked TRPC4 calcium signal – cell-based, HEK293 TRPC4/mu-opioid, Fluo-4 calcium, EC20 DAMGO, dose response (AID 434941); type: functional
# T1 sequence (Q9QUQ5 whole entry): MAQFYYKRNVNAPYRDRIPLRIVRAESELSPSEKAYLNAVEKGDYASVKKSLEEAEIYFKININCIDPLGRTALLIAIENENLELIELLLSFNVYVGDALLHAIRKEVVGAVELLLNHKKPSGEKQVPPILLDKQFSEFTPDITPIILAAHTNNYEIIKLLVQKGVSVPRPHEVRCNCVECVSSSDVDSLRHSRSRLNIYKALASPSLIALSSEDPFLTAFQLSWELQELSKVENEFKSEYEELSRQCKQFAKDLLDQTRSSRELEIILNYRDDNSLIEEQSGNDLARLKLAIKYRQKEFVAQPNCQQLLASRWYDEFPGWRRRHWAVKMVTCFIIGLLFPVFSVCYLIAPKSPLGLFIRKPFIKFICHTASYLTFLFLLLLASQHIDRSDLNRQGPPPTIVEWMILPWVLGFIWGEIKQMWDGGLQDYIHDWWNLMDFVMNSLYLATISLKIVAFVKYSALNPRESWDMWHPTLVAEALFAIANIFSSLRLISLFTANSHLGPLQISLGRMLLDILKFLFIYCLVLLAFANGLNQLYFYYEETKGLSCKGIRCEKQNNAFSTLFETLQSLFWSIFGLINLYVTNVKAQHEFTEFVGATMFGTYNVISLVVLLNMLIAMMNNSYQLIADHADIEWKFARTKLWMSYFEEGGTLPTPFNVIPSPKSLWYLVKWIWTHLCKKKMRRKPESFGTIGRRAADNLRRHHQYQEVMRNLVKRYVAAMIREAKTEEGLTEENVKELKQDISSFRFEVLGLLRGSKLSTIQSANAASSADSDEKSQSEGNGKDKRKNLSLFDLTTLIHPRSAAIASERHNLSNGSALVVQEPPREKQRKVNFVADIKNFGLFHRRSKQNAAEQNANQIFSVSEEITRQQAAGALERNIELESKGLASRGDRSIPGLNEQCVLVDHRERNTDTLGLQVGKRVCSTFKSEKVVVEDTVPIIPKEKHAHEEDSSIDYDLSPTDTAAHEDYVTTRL
# [2] = molecular target: Glyceraldehyde-3-phosphate dehydrogenase (Homo sapiens, UniProt P04406)
# [3] = molecular target: Alkaline phosphatase, placental type (Homo sapiens, UniProt P05187); test: human placental alkaline phosphatase inhibition – biochemical, luminescence, confirmation (AID 1512); type: functional
# [4] = molecular target: T2, Voltage-gated N-type calcium channel alpha-1B subunit/Amyloid beta A4 precursor protein-binding family A member 1 (Homo sapiens, UniProt Q00975+Q02410); type: protein assay
# T2 sequence (Q00975 whole entry): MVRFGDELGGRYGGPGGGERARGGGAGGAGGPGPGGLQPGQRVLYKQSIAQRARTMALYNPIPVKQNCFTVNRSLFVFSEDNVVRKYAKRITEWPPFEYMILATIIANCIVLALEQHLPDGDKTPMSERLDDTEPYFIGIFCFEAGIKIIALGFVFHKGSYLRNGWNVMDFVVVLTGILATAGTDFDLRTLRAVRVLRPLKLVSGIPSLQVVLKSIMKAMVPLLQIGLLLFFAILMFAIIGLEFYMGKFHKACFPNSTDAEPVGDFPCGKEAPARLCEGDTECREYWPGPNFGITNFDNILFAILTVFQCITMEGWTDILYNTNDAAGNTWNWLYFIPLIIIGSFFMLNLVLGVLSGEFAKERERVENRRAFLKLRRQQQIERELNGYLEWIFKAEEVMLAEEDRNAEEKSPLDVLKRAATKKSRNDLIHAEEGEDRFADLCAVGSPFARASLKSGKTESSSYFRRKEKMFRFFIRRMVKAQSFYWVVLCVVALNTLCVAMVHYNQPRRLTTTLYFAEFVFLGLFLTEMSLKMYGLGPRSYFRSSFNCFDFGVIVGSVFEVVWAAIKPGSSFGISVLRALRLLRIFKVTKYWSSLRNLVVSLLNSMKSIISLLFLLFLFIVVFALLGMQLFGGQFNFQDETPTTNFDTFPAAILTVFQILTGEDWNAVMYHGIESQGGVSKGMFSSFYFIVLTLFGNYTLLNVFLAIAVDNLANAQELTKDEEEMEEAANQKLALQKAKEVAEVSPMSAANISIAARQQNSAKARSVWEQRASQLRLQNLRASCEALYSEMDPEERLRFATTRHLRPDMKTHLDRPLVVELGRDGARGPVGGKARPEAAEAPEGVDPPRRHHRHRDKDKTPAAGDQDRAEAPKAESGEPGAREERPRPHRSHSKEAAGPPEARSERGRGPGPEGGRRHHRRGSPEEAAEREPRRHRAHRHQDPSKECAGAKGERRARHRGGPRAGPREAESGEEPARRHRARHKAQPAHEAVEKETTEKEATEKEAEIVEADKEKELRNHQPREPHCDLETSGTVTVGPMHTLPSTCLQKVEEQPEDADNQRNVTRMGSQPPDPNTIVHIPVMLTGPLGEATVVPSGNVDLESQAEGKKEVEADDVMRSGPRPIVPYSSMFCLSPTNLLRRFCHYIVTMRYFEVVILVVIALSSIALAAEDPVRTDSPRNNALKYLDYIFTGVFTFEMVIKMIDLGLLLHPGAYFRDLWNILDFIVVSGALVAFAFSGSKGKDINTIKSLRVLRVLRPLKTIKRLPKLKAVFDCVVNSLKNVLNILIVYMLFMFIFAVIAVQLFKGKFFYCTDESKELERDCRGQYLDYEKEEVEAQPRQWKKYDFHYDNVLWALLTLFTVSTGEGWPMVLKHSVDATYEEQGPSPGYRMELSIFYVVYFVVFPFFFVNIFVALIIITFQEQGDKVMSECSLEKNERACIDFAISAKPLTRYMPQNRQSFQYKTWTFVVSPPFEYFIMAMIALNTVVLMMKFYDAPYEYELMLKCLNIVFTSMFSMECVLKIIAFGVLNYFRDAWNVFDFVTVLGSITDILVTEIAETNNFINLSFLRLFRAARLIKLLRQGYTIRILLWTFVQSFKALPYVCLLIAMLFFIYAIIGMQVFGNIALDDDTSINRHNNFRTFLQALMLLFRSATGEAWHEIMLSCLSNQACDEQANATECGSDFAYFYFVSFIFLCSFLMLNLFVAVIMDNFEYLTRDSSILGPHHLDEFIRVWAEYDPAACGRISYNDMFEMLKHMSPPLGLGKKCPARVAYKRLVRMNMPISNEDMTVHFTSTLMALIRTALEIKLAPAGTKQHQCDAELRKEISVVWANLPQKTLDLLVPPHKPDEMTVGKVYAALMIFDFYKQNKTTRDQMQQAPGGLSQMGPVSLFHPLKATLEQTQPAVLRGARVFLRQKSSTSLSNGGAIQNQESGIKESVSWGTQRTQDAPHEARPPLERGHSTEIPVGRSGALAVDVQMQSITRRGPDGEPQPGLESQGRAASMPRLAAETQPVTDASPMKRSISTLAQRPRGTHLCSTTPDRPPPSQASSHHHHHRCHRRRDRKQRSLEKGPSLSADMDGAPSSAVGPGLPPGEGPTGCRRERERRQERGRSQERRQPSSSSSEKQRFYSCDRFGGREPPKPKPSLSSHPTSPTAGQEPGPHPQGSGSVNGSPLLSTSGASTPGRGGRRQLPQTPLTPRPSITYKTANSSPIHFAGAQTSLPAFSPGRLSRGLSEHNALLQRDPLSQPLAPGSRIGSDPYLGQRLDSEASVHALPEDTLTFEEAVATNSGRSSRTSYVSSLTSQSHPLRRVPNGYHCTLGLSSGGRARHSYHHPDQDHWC
# T2 sequence (Q02410 whole entry): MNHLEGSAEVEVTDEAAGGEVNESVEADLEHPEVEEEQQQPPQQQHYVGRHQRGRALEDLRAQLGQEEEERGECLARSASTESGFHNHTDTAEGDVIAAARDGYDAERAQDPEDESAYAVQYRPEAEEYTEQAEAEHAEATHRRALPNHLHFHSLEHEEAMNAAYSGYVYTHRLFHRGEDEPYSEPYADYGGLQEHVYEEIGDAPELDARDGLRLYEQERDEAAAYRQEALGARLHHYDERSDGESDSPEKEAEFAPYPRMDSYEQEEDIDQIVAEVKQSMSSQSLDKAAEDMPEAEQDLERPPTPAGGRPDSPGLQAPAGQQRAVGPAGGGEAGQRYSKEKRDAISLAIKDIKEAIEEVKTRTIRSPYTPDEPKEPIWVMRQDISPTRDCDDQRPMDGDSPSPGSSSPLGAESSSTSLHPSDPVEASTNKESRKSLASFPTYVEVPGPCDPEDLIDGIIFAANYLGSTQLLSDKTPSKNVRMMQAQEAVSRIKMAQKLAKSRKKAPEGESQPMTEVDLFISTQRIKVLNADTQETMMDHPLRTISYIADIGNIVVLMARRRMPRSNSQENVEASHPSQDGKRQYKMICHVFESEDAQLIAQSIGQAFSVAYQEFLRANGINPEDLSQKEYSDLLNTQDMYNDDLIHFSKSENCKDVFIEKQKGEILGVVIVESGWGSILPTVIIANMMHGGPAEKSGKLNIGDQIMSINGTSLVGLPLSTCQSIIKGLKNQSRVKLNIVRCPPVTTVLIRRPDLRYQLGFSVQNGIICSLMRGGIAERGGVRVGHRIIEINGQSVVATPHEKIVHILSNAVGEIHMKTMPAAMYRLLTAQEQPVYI
# Estrogen receptor = molecular target: T3, Estrogen receptor (Homo sapiens, UniProt P03372);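 also: potency for inhibiting coactivator peptide recruitment to the receptor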
# T3 sequence (P03372 whole entry): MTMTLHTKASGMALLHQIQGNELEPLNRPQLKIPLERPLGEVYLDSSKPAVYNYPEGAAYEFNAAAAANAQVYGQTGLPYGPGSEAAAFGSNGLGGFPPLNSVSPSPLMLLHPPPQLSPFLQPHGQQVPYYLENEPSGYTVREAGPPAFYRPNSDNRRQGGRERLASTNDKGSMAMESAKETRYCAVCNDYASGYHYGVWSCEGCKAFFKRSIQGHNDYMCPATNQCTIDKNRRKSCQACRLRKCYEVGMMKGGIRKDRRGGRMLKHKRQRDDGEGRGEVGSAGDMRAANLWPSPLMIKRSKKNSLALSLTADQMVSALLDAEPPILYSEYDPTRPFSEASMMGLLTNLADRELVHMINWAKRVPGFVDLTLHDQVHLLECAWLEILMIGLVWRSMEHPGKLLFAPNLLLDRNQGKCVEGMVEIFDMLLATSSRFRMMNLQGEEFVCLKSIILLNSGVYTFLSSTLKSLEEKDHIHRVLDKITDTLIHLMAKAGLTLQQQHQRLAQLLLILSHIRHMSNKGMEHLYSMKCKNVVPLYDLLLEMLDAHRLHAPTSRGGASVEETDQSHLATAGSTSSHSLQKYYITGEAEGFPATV
# [5] = molecular target: T2, Voltage-gated N-type calcium channel alpha-1B subunit/Amyloid beta A4 precursor protein-binding family A member 1; type: protein assay; remark: listed apart in the source
# Mu-type opioid receptor = Mu-type opioid receptor (Homo sapiens, UniProt P35372); test: SAR Analysis of Antagonists of the MOR Receptor using an Image-Based Assay - Set 3. [Related pubchem assays (depositor defined):AID1777, AID1785, AID1786, AID1966, AID2133, AID2136, AID2284, AID2285, AID2420]; type: functional
# [6] = molecular target: T4, Kappa-type opioid receptor (Homo sapiens, UniProt P41145); test: SAR analysis of small molecule antagonists of the kappa opioid receptor via a luminescent beta-arrestin assay - Set 4. [Related pubchem assays (depositor defined):AID1777, AID1778, AID1785, AID1786, AID1966, AID2133, AID2136, AID2285]; type: functional
# T4 sequence (P41145 whole entry): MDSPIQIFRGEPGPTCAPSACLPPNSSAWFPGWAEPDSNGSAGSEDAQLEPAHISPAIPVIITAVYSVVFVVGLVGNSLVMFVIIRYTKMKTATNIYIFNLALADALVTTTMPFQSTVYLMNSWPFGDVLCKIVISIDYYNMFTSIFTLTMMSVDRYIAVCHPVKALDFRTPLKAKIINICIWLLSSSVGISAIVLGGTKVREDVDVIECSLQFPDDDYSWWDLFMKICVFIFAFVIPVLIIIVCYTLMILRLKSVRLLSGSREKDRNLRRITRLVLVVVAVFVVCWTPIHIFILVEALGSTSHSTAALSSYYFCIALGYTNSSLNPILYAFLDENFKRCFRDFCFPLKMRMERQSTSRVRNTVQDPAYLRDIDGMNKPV
# [7] = molecular target: Delta-type opioid receptor (Homo sapiens, UniProt P41143); test: SAR Analysis of Antagonists of the DOR Receptor using an Image-Based Assay - Set 3. [Related pubchem assays (depositor defined):AID1777, AID1785]; type: functional;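 also: U2OS cells expressing DOR1 and beta-arrestin GFP stimulated with 100 nM SNC80; imaging of GFP-tagged beta-arrestin moving into spots after receptor activation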
# [8] = molecular target: T4, Kappa-type opioid receptor; test: SAR analysis of Antagonists of the Kappa Opioid Receptor (KOR) using an Image-Based Assay - Set 4. [Related pubchem assays (depositor defined):AID1777, AID1785]; type: functional
# [9] = Intein inhibitors as potential Tuberculosis drugs, a cytotoxicity screen. [Related pubchem assays (depositor defined):AID2221, AID2223, AID434968, AID435010, AID449749, AID449750, AID489010]; type: functional
# [10] = molecular target: T5, Replicative DNA helicase DnaB (Mycobacterium tuberculosis, UniProt P9WMR3); test: DnaB intein splicing inhibitors, dose response, biochemical, cell-free fluorescence (AID 449749); type: functional
# T5 sequence (P9WMR3 whole entry): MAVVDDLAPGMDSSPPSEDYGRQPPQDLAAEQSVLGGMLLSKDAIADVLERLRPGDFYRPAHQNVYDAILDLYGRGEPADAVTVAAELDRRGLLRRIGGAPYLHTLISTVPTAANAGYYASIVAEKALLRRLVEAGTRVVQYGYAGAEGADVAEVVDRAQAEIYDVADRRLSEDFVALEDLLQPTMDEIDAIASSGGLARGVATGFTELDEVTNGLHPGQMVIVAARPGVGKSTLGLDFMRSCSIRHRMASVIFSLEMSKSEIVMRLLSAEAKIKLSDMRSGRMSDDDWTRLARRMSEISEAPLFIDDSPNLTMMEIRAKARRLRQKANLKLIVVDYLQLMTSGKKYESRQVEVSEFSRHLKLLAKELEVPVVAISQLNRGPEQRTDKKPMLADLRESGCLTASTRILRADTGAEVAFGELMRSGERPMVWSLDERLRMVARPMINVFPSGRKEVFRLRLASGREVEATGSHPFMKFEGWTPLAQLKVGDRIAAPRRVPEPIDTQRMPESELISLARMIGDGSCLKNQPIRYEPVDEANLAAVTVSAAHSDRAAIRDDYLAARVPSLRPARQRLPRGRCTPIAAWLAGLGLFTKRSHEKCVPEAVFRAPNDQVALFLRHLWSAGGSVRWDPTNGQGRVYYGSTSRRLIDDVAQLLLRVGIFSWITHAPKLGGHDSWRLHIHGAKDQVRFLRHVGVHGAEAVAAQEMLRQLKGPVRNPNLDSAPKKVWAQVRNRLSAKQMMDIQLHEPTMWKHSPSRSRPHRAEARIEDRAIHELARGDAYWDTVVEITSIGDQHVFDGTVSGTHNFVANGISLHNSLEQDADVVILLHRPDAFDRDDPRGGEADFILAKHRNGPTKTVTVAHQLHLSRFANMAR
# Protein RecA = molecular target: T6, Protein RecA (Mycobacterium tuberculosis, UniProt P9WHJ3); test: Fluorescence Cell-Free Homogeneous Dose Retest to Identify Inhibitors of RecA-Intein Splicing Activity. [Related pubchem assays (depositor defined):AID2097, AID2223, AID489010, AID492950]; type: functional
# T6 sequence (P9WHJ3 whole entry): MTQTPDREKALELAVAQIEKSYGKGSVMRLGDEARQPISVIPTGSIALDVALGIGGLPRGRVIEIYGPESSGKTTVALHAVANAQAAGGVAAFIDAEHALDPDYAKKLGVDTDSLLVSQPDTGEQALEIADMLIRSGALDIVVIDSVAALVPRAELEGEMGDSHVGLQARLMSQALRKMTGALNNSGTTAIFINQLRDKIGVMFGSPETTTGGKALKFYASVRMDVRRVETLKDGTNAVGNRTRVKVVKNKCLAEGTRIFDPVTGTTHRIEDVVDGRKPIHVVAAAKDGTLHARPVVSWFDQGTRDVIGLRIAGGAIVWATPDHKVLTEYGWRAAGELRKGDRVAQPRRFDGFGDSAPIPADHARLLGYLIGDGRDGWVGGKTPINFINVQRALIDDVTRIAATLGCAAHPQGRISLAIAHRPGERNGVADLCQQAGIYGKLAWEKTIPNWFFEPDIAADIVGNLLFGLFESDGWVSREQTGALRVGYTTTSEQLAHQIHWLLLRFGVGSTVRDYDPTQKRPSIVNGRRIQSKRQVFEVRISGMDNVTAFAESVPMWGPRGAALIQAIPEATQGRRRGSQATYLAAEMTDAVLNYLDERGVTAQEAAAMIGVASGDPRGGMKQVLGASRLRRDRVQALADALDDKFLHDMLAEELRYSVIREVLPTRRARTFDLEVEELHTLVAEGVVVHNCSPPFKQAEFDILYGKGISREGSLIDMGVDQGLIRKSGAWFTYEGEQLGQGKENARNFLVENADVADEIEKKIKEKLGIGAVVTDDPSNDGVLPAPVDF
# [11] = molecular target: T4, Kappa-type opioid receptor; type: functional
# Beta-galactosidase [12] = molecular target: T7, Beta-galactosidase (Escherichia coli, UniProt Q8VNN2); type: functional
# T7 sequence (Q8VNN2 whole entry): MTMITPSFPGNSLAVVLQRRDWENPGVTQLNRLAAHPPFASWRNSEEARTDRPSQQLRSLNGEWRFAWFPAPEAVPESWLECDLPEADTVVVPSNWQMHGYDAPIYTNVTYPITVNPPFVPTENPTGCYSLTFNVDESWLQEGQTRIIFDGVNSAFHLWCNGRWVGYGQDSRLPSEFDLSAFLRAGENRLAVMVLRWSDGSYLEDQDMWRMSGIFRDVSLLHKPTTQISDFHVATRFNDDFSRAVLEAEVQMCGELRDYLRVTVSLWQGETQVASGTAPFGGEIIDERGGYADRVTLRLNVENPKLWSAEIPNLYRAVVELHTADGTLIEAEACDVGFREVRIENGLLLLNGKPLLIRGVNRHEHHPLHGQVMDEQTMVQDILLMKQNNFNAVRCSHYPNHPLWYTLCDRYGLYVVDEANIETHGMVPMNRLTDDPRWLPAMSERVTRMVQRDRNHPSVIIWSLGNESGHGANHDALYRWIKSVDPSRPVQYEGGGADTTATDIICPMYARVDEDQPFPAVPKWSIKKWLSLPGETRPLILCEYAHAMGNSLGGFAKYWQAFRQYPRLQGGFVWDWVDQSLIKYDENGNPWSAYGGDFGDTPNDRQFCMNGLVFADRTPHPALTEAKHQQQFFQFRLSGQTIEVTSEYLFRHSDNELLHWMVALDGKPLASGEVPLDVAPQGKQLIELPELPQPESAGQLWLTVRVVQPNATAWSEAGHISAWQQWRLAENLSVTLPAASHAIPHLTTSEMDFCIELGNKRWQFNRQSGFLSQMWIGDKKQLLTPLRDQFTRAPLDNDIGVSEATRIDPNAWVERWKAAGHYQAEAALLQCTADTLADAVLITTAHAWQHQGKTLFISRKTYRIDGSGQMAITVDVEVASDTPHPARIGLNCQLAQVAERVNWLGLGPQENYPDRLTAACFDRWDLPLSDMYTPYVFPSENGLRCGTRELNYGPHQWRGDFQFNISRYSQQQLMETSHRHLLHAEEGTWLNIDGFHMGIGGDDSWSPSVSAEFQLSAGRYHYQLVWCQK
# [13] = molecular target: T4, Kappa-type opioid receptor; type: functional; remark: listed apart in the source
# [14] = molecular target: G-protein coupled receptor 55 (Homo sapiens, UniProt Q9Y2T6); test: selective activators of receptor GPR55 – imaging, U2OS cells, beta-arrestin-GFP redistribution, primary screen (AID 1961); type: functional
# G-protein coupled receptor 55, sequence (Q9Y2T6 whole entry, the tested form may be a part): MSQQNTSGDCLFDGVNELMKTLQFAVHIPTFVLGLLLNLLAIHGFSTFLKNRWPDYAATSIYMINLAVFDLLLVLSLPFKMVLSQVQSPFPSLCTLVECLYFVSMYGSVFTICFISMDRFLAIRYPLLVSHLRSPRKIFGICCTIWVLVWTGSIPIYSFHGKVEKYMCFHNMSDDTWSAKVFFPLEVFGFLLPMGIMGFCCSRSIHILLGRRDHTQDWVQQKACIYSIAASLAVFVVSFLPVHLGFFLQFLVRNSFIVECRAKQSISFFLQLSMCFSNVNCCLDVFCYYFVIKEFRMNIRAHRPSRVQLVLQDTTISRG
# [15] = molecular target: Disintegrin and metalloproteinase domain-containing protein 17 (Homo sapiens, UniProt P78536); test: exosite inhibitors of ADAM17, dose response, biochemical (AID 743260)
# [16] = inhibition of ADAM10 peptide cleavage – biochemical, FRET peptide substrate, recombinant human ADAM10, selectivity assay for ADAM17 exosite inhibitor project, dose response (AID 743259);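 also: ADAM10 enzyme cleaving a FRET peptide substrate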
# [17] = Trypanosoma cruzi growth suppression in host cells – NIH3T3 host cells, beta-gal luminescence, confirmation (AID 2044); type: functional, cell-based;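 also: intracellular parasites grown in NIH/3T3 mouse fibroblasts as host cells; luminescent beta-galactosidase reporter signal from transgenic T. cruzi replicating inside host cells; inhibitors lower the luminescence signal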
# [18] = microbe, parasite or virus in culture; type: functional; conditions: Mycobacterium tuberculosis
# [19] = NIH3T3 cell viability loss – ATP luminescence, mouse fibroblasts, counter-screen, dose response (AID 2010); type: functional, cell-based;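 also: cells exposed to compound for about 90 hours before reading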
# Beta-galactosidase [20] = molecular target: T7, Beta-galactosidase; test: detection-enzyme interference by beta-gal modulators – biochemical, E. coli enzyme, set 3, artefact control for CCR6 antagonist project, dose response (AID 504712); type: functional
# Coagulation factor XII = molecular target: T8, Coagulation factor XII (Homo sapiens, UniProt P00748); test: Factor XIIa Dose Response Confirmation from Single Well HTS. [Related pubchem assays (depositor defined):AID701]; type: functional
# T8 sequence (P00748 whole entry): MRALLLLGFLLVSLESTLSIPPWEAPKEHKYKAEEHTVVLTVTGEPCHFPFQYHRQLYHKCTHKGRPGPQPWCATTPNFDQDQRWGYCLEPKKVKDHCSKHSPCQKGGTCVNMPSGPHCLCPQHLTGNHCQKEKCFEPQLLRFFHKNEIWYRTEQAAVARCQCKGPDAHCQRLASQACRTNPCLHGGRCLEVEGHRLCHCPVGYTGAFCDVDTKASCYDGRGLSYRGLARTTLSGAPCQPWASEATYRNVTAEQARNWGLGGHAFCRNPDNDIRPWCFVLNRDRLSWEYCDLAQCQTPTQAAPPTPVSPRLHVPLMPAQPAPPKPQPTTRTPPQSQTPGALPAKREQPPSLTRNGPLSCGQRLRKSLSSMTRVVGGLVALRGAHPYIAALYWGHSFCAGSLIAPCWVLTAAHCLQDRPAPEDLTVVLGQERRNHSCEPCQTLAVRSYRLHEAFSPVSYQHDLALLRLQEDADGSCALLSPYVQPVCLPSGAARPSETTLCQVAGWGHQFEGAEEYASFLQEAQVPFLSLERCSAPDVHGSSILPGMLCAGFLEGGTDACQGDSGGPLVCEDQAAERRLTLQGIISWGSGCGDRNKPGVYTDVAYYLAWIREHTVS
# H9c2 = test: cells; type: functional, cell-based; conditions: Rattus norvegicus, H9c2, Myocardium;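 also: confirmatory concentration-response retest of ultra-high-throughput screening hits for modulation of myocardial damage; cell death induced by hydrogen peroxide oxidative stress; compound pretreatment for 60 min then peroxide exposure for 2 h; potency is for protecting the cells against peroxide damage rather than for killing them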
structure (smiles),measurement,setting,value
O=[N+]([O-])c1cc(C(F)(F)F)ccc1NC1CCN(Cc2ccccc2)C1 (stereo not given),EC50,[1],0.67 µM (active)
CC(C)NC(=O)c1cc(-c2cc(F)c(Cl)cc2Cl)n[nH]1,IC50,[2],> 100 µM (not active)
same,IC50,[3],> 100 µM (inactive)
C=CCOc1ccc(CC2C(=O)N(C)C(=O)N(C)C2=O)cc1,IC50,[4],4.93 µM (active)
same,IC50,Estrogen receptor,> 50 µM (not active)
same,IC50,[5],> 50 µM (inactive)
CC(C)N(CCNC(=O)c1ccc(CNS(=O)(=O)c2ccc(C(C)(C)C)cc2)cc1)Cc1ccccc1,IC50,Mu-type opioid receptor,> 32 µM (inactive)
same,IC50,[6],2.66 µM (active)
same,IC50,[7],> 32 µM (inactive)
same,IC50,[8],0.79 µM (active)
N#CC1=C(N)Oc2[nH]nc(-c3ccccc3)c2C1c1cccc(OC(=O)N2CCOCC2)c1 (stereo not given),CC50,[9],31.4 µM (active)
same,AC50,[10],4.72 µM (active)
same,EC50,Protein RecA,1.19 µM (active)
CCCCC/C(=N/O)c1c(C)[nH]c2ccccc12,IC50,[11],> 31.5 µM (inactive)
same,EC50,Beta-galactosidase [12],> 31.5 µM (inactive)
same,IC50,[13],> 32 µM
Cc1ccc(S(=O)(=O)N(Cc2ccc(Cl)cc2)c2ccccc2C(=O)NCc2ccco2)cc1,EC50,[14],> 32 µM (inactive)
same,IC50,[15],> 69.5 µM (inactive)
same,IC50,[16],> 7.72 µM (active)
C=CCN(CC=C)C(=S)NC(=O)c1ccc(-c2ccccc2)cc1,EC50,[17],1.82 µM (active)
same,CC50,[18],> 40 µM (active)
same,EC50,[19],9.2 µM (active)
same,IC50,Beta-galactosidase [20],> 66.6 µM (inactive)
CC(=O)Oc1ccc2c(C)cc(=O)oc2c1,IC50,Coagulation factor XII,> 50 µM (inconclusive)
same,IC50,H9c2,16.5 µM (active)
